Compound	melting point [°C]
CCC(=O)NC1Cc2cccc3c2N(CCC3)C1=O (stereo unspecified)	149 to 152
CC(=O)c1sccc1CN1C(=O)C(NC(=O)Nc2cccc(C)c2)N=C(C2CCCCC2)c2ccccc21 (racemic)	231 to 232
COC(=O)C1C=CCN2C(=O)C(CCOC3CCCCO3)(Cc3ccccc3)C(=O)N12 (stereo unspecified)	113 to 114
CC(C)c1c(Cl)nc(OCc2ccccc2)nc1OCc1ccccc1	77 to 78
Cc1ccc2c(n1)C(=O)N(c1cccc3ccccc13)C2=O	200 to 205
CCOC(=O)c1cn(C2COC2)c2c(OC)c(F)c(F)cc2c1=O	195 to 198
COCNC(=O)c1snc(Cl)c1Cl	79 to 87
Cc1[nH]c(=O)c(C#N)c2c1CC(c1cccnc1)CC2 (stereo unspecified)	> 300
CC(C)C=CC1(C(F)(F)F)OCC(=O)Nc2ccc(F)cc21 (stereo unspecified)	145 to 156
CC1(Br)CN(C2SCN(c3cccc(OC(F)(F)F)c3)C2=O)C1=O (stereo unspecified)	111 to 113
COc1ccn2cc(-c3ccc(OC)c(OC)c3)nc2c1	142
CCC(=O)OCOC(=O)Oc1ccc([N+](=O)[O-])cc1	35 to 36
CC(C)(C)[Si](C)(C)Oc1ccc2c3c1OC1C(C4OCCO4)CCC4(O)C(C2)N(CC2CC2)CCC314 (stereo unspecified)	108 to 109
COc1ccc(NC(=S)NCCO)c(C)c1	171 to 174
Cc1c(Cl)ccc([N+](=O)[O-])c1C#N	97 to 98
O=[N+]([O-])c1ccc(S(=O)(=O)N2CCN(c3ccc(F)cc3)CC2)cc1	189 to 191
COC(=O)C1(C(=O)OC)CCC(c2c(-c3ccccc3)n(C)c3ccccc23)CC1	134 to 135
Oc1ccc2cc(CNCc3ccccc3)ccc2c1	120 to 122
O=C1C(c2ccc3c(c2)OCO3)c2ccccc2N1Cc1ccc(Cl)cc1 (stereo unspecified)	161 to 163
COc1ccc(CN2C(=O)CNS2(=O)=O)cc1	111 to 113
CN1CN(C2CC2)c2ccc(C(N)=O)cc2S1(=O)=O	271 to 273
O=C(O)Cn1cccc1Sc1ccccc1	101 to 102
CC(COc1ccc(CC2SC(=O)N(C(c3ccccc3)(c3ccccc3)c3ccccc3)C2=O)cc1)N1CC(COc2cccc(Cl)c2)OC1=O (stereo unspecified)	74 to 81
c1ccc(Cn2nnnc2-c2ccccc2)cc1	54 to 67
CCOC(=O)c1cc2ccc([Si](C)(C)C)cc2[nH]1	127 to 129
COCn1cc(C2=C(c3cn(C)c4cc([N+](=O)[O-])ccc34)C(=O)NC2=O)c2ccccc21	> 250

Compound	melting point [°C]
CC(C)NC(c1nccn1C)C1(c2ccc(Cl)c(Cl)c2)CCC1 (stereo unspecified)	98 to 100
O=C(NCc1ccccc1)c1ccc(F)c2c1CC(N(CCCc1c[nH]c3ccc(F)cc13)C1CCC1)CO2 (stereo unspecified)	124
C/C(=C(\C#N)C(N)=S)N1CCCN(c2cccc([N+](=O)[O-])c2)CC1	157 to 158
COC(=O)C[C@]1(C(=O)OC)CC(c2ccc(OC)c(OC3CCCC3)c2)=NO1	92 to 93
Nc1cc(-c2ccoc2)ccc1Nc1cccc(C(=O)O)c1	211 to 212
CCOc1cc(C(C#N)N2C(=O)c3cccc(NC(C)=O)c3C2=O)ccc1OC (stereo unspecified)	118 to 120
CC(C)=Cn1ccnc1[N+](=O)[O-]	77 to 79
Clc1ccc(-c2ncn(CCCN3CCOCC3)c2-c2ccncc2)cc1Cl	106
O=C(N[C@H]1CC[C@H](CCN2CCC(c3cccc4c3CCO4)CC2)CC1)c1ccc(N2CCOCC2)cc1	247
Cn1c(C(F)(F)F)c(C#N)c2cc(Cl)ccc21	166 to 168
Cc1cc(C(N)=O)ncc1C(c1c(F)ccc(F)c1F)S(=O)(=O)c1ccc(OC(F)(F)F)cc1 (stereo unspecified)	219 to 220
CCOCc1nc2c(N)nc3cc(Br)ccc3c2s1	201 to 204
CCOC(=O)c1c(NCC(=O)c2ccccc2)c2c(Cl)cc(Cl)cc2n1C(=O)OC(C)(C)C	143 to 144
CC(C)(C)c1ccc(C#N)cc1N	94.5 to 95
CCCCCS(=O)(=O)NC(=O)/C=C/c1ccc(OCCOC)cc1Nc1ccc(C(F)(F)F)cc1	142 to 143
C=CCNc1ccc(N(CC=C)CC=C)cc1[N+](=O)[O-]	131 to 140
Cc1cc2c(cc1-c1cc(C=CC(=O)O)ccc1F)C(C)(C)CCC2(C)C	181 to 183
CC(C)(C)COc1c(-c2ccc(S(C)(=O)=O)cc2)cnn(-c2cccc(Cl)c2)c1=O	151 to 153
CCOC(=O)C(=O)Nc1cccc([N+](=O)[O-])c1C#N	111 to 113
CN1C(C)(C)CC(NC(=O)c2ccc(-c3cc4cc(Cl)c(Cl)cc4[nH]3)cc2)CC1(C)C	325
NS(=O)(=O)c1cc(Cl)cc(Cl)c1O	> 225
Cn1cc2c(C=O)c(Br)ccc2n1	137 to 140
Cc1cc(-c2ccc(C(F)(F)F)nc2)cc(-c2cccc(-c3cccc(S(N)(=O)=O)c3)n2)n1	233 to 234
CCOc1ccc(C(=O)C2CC=CCC2C(=O)O)cc1Cl (stereo unspecified)	123 to 125
O=C1c2cc(F)ccc2CCc2cccnc21	78 to 81
Cc1nc2c(N)nc3ccccc3c2n1OCc1ccccc1[N+](=O)[O-]	215 to 217

Compound	melting point [°C]
Cc1cccnc1-c1ccc2ccnc(N)c2n1	170 to 171
O=C(c1ccco1)N1CCN(Cc2ccc(-c3cc4ncnc(Nc5ccc6[nH]ccc6c5)c4s3)cc2)CC1	167 to 174
CC(C)CNc1c([N+](=O)[O-])cnc2cccnc12	97 to 99
Nc1ncnc2[nH]c(=S)sc12	> 370
CC(=O)Nc1ccc2c(c1)CCC(CC#N)C2=O (stereo unspecified)	189 to 190
OCCC(c1ccccc1)(c1ccccc1)c1ccccc1	103 to 106
CCCCCS(=O)(=O)NC(=O)/C(=C/c1ccc(OCCOC)cc1Oc1ncc(C(F)(F)F)cc1Cl)CC	104 to 106
Cc1ccc2c(c1F)N(C1CC1)C=NS2(=O)=O	189 to 192
O=C1NC(=O)C2(C=COc3c2ccc2ncccc32)N1 (stereo unspecified)	330
C[C@]1(COc2ccc(N3CCC(OCc4ccc(OC(F)(F)F)cc4)CC3)cc2)Cn2cc([N+](=O)[O-])nc2O1	214 to 218
CC(C)(C)OC(=O)N1CCN(c2ccc(N3C[C@H](CN)OC3=O)cc2F)CC1	184
Nc1nc(SC2CCC2)c2ncn(C3C=CC(CO)C3)c2n1 (stereo unspecified)	159 to 160
COc1cc([N+](=O)[O-])c2nccc(C)c2c1OCCCCCCCCc1ccccc1	39.5 to 41
CC1(C)CC(=O)C(SCC2CCCCC2)=C(O)C1	67.5 to 69.5
Cn1c(=O)c2sccc2n2cnc(-c3nc(C4CC4)no3)c12	206 to 207
CCOC(=O)C1=CNc2ccnn2C1	198 to 200
CNc1nc(-c2cccc([N+](=O)[O-])c2)c2cc(OC)c(OC)cc2n1	218 to 220
CC(C)(C)C(=O)ON=C(N)CN1C(=O)C2(COc3cc4c(cc32)OCO4)c2ccccc21 (stereo unspecified)	183 to 185
CNCc1coc(-c2cccc(C3=Nc4ccc(-n5cccc5)cc4NC(=O)C3)c2)n1	182 to 183
CCNS(=O)(=O)c1nc2ccccc2n1CC	135 to 139
O=c1ccc2ccc(CO)cc2o1	116 to 117
COCCCN(C(=O)N(CCCl)N=O)C1(O)COC(OCC(C)C)C(O)C1O (stereo unspecified)	67 to 69
CCOC(=O)c1c(S(C)(=O)=O)nc2sccn12	158 to 161
O=C(Nc1ccccc1)c1cccc(Nc2cc(Cl)cc(Cl)c2)c1	164 to 165
COC(=O)c1cc(-c2ccccc2)c(=O)n2ccc3ccc(Cl)cc3c12	169 to 170
O=CNCC1CCN(C(c2ccccc2)c2ccccc2)CC1	125

Compound	melting point [°C]
CC(C)(C)OC(=O)NC1C(=O)N(OCc2ccccc2)C12CCOCC2 (stereo unspecified)	144 to 146
COc1nc(C)c(C)cc1[N+](=O)[O-]	71 to 73
COc1ccc(Cl)cc1C1CC(=O)c2c(C)ccnc2C1 (stereo unspecified)	131 to 133
CCCS(=O)(=O)CC(=O)NNC(=O)N1Cc2ccccc2Oc2ccc(Cl)cc21	173 to 175
O=c1cc(-c2ccccc2)oc2cc(OCC(O)CCCOC3CCCCO3)ccc12 (stereo unspecified)	110 to 112
Nc1ccc(N2CCN(C(C(=O)NCC(F)(F)F)c3ccccc3)CC2)cc1 (stereo unspecified)	136
O=C(Nc1cccc2c(CBr)c(Br)cnc12)c1c(Cl)cccc1Cl	210 to 213
Cn1nc(C(F)(F)F)c(C(=O)Nc2cccc3c2CCC3(C)C)c1Cl	120
Cc1c(-c2ccccc2)oc2c(C(=O)NCCO)cccc2c1=O	206 to 208
O=C1N(Cc2ccc(F)cc2)Cc2cncn2C1(Cc1ccccc1)c1ccc(Br)cc1 (stereo unspecified)	166 to 168
Cc1cccc(C)c1C(=Nc1ccc(F)cc1)NC(=NC1CCCCC1)N1CCCCC1C (stereo unspecified)	167 to 168
Nc1c(F)c(N2CCC(c3cccnc3)C2)c(F)c2c1c(=O)c(C(=O)O)cn2C1CC1 (stereo unspecified)	250 to 252
FC(F)(F)c1ccc(-c2ccc(N3CCCN(c4ccc(-c5ccc(C(F)(F)F)cc5)cn4)CC3)nc2)cc1	236 to 238
CC(O)CCCCn1cnc2c1c(=O)n(C)c(=O)n2C (stereo unspecified)	93 to 94
CCCc1c(OCCCS(=O)c2nc3ccc(C(=O)O)cc3[nH]2)ccc(C(C)=O)c1O (stereo unspecified)	173 to 175
O=[N+]([O-])c1ccc(F)c(-n2nc3c(c2Cl)CCCC3)c1	109
Cn1sc(=O)n(C)c1=O	64 to 65
CCCNC(=S)NS(=O)(=O)c1cc2c(cc1OC)OCCC2CNC(=O)N1CC(C)=C(CC)C1=O (stereo unspecified)	96 to 98
COC(=O)C[C@H]1C[C@@H](C=Cc2ccccc2)OC(C)(C)O1 (relative stereo)	84 to 86.5
CC(C)c1nc(-c2ccccc2Cc2ccccc2)cc(-c2ccc(F)cc2)c1C=O	205 to 207
CCOC(=O)c1cnc2scc(C)n12	45
COC(=O)c1ccc(C)c(C2=NC(C)(C(C)C)C(=O)N2)c1Cl (stereo unspecified)	181 to 183
CC(=Cc1ccc(C(F)(F)F)cc1)C1OCC(S(=O)Cc2ccc(Cl)cc2)CO1 (stereo unspecified)	192 to 194

Reference: a melting point compilation (Tetko et al.; mined from patent text by program, amines drawn as free bases though some values may be those of a salt)
